Results reported in ChEMBL document CHEMBL5726441, “Isoindolone derivatives” (2017).
pKi: −log10 of the molar value.

Target: Bromodomain-containing protein 4 (Homo sapiens, UniProt O60885)
Test: TR-FRET Assay: Compound dilution series were prepared in DMSO via a 3-fold serial dilution from 2.5 mM to 42 nM. Compounds were then diluted 6:100 in assay buffer (20 mM Sodium Phosphate, pH 6.0, 50 mM NaCl, 1 mM EDTA, 0.01% Triton X-100, 1 mM DTT) to yield 3× working solutions. Six microliters (μL) of the working solution was then transferred to white, low-volume assay plates (Costar #3673). A 1.5× assay mixture containing His-tagged bromodomain, Europium-conjugated anti-His antibody (Invitrogen PV5596) and the Alexa-647-conjugated probe molecule was also prepared. Twelve μL of this solution were added to the assay plate to reach a final volume of 18 μL. The final concentration of 1× assay buffer contains 2% DMSO, 50 μM−0.85 nM compound, 8 nM bromodomain, 1 nM antibody and 100 or 30 nM probe (for BDI or BDII, respectively). After a one-hour incubation at room temperature, TR-FRET ratios were determined using an Envision multilabel plate reader (Ex 340, Em 495/520).TR-FRET data were normalized to the means of 24 no-compound controls (high) and 8 controls containing 1 μM un-labeled probe (low). Percent inhibition was plotted as a function of compound concentration and the data were fit with the 4 parameter logistic equation to obtain IC50s Inhibition constants (Ki) were calculated from the IC50s, probe Kd and probe concentration. Typical Z′ values were between 0.65 and 0.75. The minimum significant ratio was determined to evaluate assay reproducibility (Eastwood et al., (2006) J Biomol Screen, 11: 253-261).

Row | pKi | Structure (SMILES)
1 | 5.21 | Cc1[nH]c(-c2ccccc2CN2C(=O)c3ccccc3C2=O)c2c1C(=O)CCC2
2 | 6.03 | Cc1[nH]c(-c2cccc3ccccc23)c2c1C(=O)CCC2
3 | 5.44 | Cc1[nH]c(-c2ccccc2Oc2ccccc2)c2c1C(=O)CC(CC(C)C)C2 (stereo not drawn)
